The subject of data set [1] is wild-type rats. Description: Sensitivity to hepatocarcinogenesis by diethyl nitrosamine, GST-P-positive foci in liver, wild-type rats. In kind it is in vivo, rat. Conditions: eight-week-old male, 200 mg/kg intraperitoneally, 20 weeks after the administration, per 1 cm^2. On the procedure: (§1) The livers taken from each of the above-mentioned rats were fixed with acetone and embedded in paraffine, sliced, and then GST-P, a precancerous hepatic lesion marker, was immunostained for visualization (FIG. 4, left). Further, the number and the area of positive foci per unit area in the GST-P-positive foci were measured with an image analyzer (IPAP, Olympus) (FIG. 4, right).

The test system of data set [2] is transgenic rats. Put plainly: Sensitivity to hepatocarcinogenesis by diethyl nitrosamine, GST-P-positive foci in liver, transgenic rats (mutant connexin 32). The data set is classed as in vivo, rat. Conditions: 200 mg/kg intraperitoneally. On the procedure: as §1
[3] abbreviates: transgenic rats, eight-week-old male, 20 weeks after the administration, liver, per 1 cm^2.

For `CCN(CC)N=O` [diethyl nitrosamine], in data set [1], the “area of the GST-P-positive foci per unit area (1 cm^2)” value is 0.2 mm^2 and the “number of the GST-P-positive foci per unit area (1 cm^2)” value is 11.1. Also, in data set [2] (transgenic rats in comparison to wild-type rats, 20 weeks), the “sensitivity of the transgenic rats to the hepatocarcinogen” value was “extremely high sensitivity”. Also, in data set [2] (setting [3]), the “area of the GST-P-positive foci per unit area (1 cm^2)” value was 3.32 mm^2 and the “number of the GST-P-positive foci per unit area (1 cm^2)” value stood at 79.8.

(Values after patent publication US20050044578A1, “Rat highly sensitive to carcinogen” (priority 2001, published 2005).)
